Legend:
[1] = test system: quisqualic acid stimulated spreading depression in chicken retina; test: Spreading depression in chicken retina (Test 2); details: 50% maximal inhibition of spreading depression; quisqualate 1 µg/ml, chick retina, 26°C
Description: The antagonism is measured by determining the IC50 value which represents the concentration which produces a 50% maximal inhibition of quisqualic acid stimulated spreading depression in chicken retina.
Spreading depression (Test 2)
Chicks (3-10 days old) were decapitated, the eyes enucleated and sectioned along the equatorial plane. After removal of the anterior chamber and the vitreous body, the posterior chamber of each eye was placed in a small petri dish containing a physiological saline solution (P.S.S.) of the following composition (mM) NaCI (100), KCI (6.0), CaCl2 (1.0), MgSO4 (1.0), NaHCO3 (30), NaH2PO4 (1.0), glucose (20).
The solution was saturated with 100% O2 and maintained at a temperature of 26°C.
The eyes were initially incubated in normal P.S.S. for 15-30 min. and then transferred to P.S.S. containing quisqualate (1 µg/ml). […] The time taken for an S.D. to start in each eye was measured.
After a further 15 min. of incubation in normal P.S.S. the eyes were transferred to normal P.S.S. containing the test compound and incubated for 15 min. […] The time taken for an S.D. to start in each eye was measured again. The eyes were then placed back in normal P.S.S. and after 15 min. the time taken for S.D. to start was measured again, in order to assess the degree of recovery from any drug effects. […]

AMPA receptors = test: 3H-AMPA binding (Test 1); details: displacement of 50% of specific 3H-AMPA binding (5 nM); rat cerebral cortical membrane homogenate, 0°C, 30 min
Description: The displacement activity of the compounds may be shown by determining the IC50 value which represents the concentration (µM) which causes a displacement of 50% of the specific binding of ^3H-AMPA.
^3H-AMPA binding (Test 1)
500 µl of thawed rat cerebral cortical membrane homogenate in Tris-HCI (30 mM), CaCl2 (2.5 mM) and KSCN (100 mM) pH 7.1 were incubated at 0°C for 30 min. with 25 µl ^3H-AMPA (5 nM final concentration) and the test compound and buffer. Nonspecific binding was determined by incubation with L-glutamic acid (600 µM final concentration). The binding reaction was terminated by adding 5 ml of ice-cold buffer followed by filtration through Whatman GF/C glass fibre filters and 2x5 ml wash with ice-cold buffer. Bound radioactivity was measured by scintillation counting. IC50 was determined by Hill analysis of at least four concentrations of test compound.

Structure (SMILES): CCOP(=O)(O)Cc1nnc2c(=O)[nH]c3cc(C(F)(F)F)c(-n4ccnc4)cc3n12 [Example 1, 1-(Ethoxy-hydroxy-phosphorylmethyl)-8-(1H-imidazol-1-yl)-7-trifluoromethyl[1,2,4]triazolo[4,3-a]quinoxalin-4(5H)-one]
- IC50 [1]: 1.31 µM
- IC50 (AMPA receptors): 0.24 µM
